Results as given in ChEMBL document CHEMBL5576037, “Discovery of the first ataxia telangiectasia and Rad3-related (ATR) degraders for cancer treatment” (Eur J Med Chem, 2024).
The source made the active and inactive calls. The calls are words filed in the database; no cut-off is given here.

Assays:
[1] = test system: HCT-116; assay: Antiproliferative activity against human HCT-116 cells expressing wildtype ATM incubated for 72 hrs by CCK8 assay; format: functional, cell-based; conditions: HCT-116, 72 h
[2] = test system: LoVo; assay: Antiproliferative activity against ATM deficient human LoVo cells incubated for 72 hrs by CCK8 assay; format: functional, cell-based
[3] = target: Protein cereblon/Serine/threonine-protein kinase ATR (Homo sapiens, UniProt Q13535+Q96SW2); assay: PROTAC activity at CRBN/ATR in human LoVo cells assessed as induction of ATR degradation; format: cell-based
[4] = target: Serine/threonine-protein kinase ATR (Homo sapiens, UniProt Q13535); assay: Inhibition of ATR (unknown origin)
[5] = Selectivity ratio for inhibition of ATM (unknown origin) to inhibition of ATR (unknown origin)
[6] = Selectivity ratio for inhibition of PI3K (unknown origin) to inhibition of ATR (unknown origin)
[7] = test system: LoVo; assay: Induction of DNA damage in human LoVo cells assessed as increase in gammaH2AX expression at 1 uM incubated for 72 hrs by DAPI staining based immunofluorescence analysis; format: functional, cell-based
[8] = test system: LoVo; assay: Induction of apoptosis in human LoVo cells assessed as apoptotic rate at 1 uM incubated for 48 hrs by Annexin V-FITC/PI staining based flow cytometric analysis (reference value: 5.32 %); format: functional
[9] = test system: LoVo; assay: Cell cycle arrest in human LoVo cells assessed as accumulation of cells at G0/G1 phase at 1 uM incubated for 72 hrs by PI staining based flow cytometric analysis (reference value: 52.3 %); format: functional
[10] = test system: LoVo; assay: Cell cycle arrest in human LoVo cells assessed as accumulation of cells at S phase at 1 uM incubated for 72 hrs by PI staining based flow cytometric analysis (reference value: 25.5 %); format: functional
[11] = test system: LoVo; assay: Cell cycle arrest in human LoVo cells assessed as accumulation of cells at G2/M phase at 1 uM incubated for 72 hrs by PI staining based flow cytometric analysis (reference value: 22.2 %); format: functional
[12] = test system: LoVo; assay: Synergistic antitumor activity against human LoVo cells xenografted in BALB/c nude mouse assessed as tumor growth inhibition at 12.5 mg/kg, po administered once daily for 15 days in presence of cisplatin relative to control; format: functional; conditions: 360 h, time 15 day, read-out: TGI

Sequence of Protein cereblon/Serine/threonine-protein kinase ATR (Q13535 whole entry, looked up): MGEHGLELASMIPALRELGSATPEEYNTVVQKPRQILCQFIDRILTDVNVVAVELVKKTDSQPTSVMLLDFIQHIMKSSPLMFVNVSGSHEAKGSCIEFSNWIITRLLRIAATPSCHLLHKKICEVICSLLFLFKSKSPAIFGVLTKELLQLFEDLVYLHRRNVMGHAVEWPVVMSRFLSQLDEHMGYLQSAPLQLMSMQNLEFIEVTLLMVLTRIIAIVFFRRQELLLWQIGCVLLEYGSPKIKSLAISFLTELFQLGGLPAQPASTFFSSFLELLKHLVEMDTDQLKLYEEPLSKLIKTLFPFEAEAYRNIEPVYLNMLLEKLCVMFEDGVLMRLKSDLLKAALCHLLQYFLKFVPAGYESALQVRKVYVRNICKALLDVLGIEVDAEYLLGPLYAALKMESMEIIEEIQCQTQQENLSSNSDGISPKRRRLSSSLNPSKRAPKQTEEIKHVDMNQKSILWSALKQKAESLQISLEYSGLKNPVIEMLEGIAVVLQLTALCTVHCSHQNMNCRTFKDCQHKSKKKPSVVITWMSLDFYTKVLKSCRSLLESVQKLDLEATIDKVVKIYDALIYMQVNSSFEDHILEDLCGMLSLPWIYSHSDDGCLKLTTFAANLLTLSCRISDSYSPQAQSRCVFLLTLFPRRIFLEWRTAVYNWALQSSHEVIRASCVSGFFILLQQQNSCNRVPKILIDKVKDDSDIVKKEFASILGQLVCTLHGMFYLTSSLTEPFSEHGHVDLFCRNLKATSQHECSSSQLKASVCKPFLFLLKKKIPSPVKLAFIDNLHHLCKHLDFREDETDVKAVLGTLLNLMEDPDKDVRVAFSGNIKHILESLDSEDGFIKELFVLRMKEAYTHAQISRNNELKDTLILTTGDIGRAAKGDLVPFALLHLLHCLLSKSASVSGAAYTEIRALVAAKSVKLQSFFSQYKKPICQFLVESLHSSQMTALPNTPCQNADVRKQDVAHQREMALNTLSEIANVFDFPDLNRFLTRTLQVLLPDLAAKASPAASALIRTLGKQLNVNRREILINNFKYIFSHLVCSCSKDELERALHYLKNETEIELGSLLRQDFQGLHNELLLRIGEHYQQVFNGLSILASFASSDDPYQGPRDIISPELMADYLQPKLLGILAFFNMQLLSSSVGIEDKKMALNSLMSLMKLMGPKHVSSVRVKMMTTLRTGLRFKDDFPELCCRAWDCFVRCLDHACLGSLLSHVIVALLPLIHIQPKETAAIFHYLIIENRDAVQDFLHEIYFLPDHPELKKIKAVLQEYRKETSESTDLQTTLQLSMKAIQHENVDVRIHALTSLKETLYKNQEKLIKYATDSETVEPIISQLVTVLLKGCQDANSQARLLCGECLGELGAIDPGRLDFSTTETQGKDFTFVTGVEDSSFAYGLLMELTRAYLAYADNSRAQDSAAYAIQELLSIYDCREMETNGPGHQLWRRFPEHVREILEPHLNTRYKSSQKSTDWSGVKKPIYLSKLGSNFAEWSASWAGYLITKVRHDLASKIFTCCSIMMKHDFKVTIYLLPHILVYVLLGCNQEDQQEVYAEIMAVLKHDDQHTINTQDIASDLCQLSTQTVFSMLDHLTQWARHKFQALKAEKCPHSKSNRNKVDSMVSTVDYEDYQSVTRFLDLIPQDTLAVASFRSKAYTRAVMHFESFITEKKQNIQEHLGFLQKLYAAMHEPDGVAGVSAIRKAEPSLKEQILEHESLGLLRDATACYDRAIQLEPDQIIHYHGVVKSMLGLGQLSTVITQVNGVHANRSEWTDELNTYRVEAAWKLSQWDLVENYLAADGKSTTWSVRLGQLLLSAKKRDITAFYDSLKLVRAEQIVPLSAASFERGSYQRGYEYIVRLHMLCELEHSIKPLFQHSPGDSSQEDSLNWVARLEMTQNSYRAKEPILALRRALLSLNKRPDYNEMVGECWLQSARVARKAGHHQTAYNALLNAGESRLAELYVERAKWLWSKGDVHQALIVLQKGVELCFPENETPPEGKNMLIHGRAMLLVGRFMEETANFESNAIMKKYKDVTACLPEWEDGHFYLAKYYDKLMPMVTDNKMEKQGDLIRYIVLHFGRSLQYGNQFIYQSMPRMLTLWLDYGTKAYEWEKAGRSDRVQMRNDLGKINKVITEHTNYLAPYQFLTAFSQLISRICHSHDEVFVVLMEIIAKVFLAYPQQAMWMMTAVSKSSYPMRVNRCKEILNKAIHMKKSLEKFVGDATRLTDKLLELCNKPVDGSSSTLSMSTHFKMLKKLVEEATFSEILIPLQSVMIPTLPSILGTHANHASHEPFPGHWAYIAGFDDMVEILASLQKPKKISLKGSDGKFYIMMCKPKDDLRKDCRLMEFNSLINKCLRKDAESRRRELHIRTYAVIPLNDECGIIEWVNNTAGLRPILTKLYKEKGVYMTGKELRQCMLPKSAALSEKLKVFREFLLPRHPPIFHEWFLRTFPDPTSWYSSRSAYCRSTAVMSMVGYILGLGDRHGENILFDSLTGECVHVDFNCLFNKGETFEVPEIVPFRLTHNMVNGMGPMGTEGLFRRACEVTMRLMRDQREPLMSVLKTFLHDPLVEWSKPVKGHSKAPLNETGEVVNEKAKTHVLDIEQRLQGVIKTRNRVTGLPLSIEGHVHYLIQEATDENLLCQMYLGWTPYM
Sequence of Protein cereblon/Serine/threonine-protein kinase ATR (Q96SW2 whole entry, looked up): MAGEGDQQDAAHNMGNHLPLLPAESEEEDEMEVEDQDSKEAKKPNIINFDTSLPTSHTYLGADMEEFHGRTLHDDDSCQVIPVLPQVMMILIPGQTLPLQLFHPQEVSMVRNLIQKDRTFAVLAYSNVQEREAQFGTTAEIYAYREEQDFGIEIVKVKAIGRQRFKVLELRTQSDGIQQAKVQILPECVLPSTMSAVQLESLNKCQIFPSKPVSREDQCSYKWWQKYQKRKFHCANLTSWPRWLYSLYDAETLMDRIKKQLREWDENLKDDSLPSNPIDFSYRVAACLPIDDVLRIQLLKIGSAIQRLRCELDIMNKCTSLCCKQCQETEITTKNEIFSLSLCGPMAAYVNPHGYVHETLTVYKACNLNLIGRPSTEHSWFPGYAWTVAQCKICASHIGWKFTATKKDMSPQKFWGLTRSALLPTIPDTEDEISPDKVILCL
Sequence of Serine/threonine-protein kinase ATR (Q13535 whole entry): as the sequence (Q13535 whole entry, looked up) above

IC50 [1] [µM] | IC50 [2] [µM] | Structure (SMILES) | also measured
> 50 | > 50 | C[C@@H]1COCCN1c1cc(C2([S@@](C)(=O)=NC(=O)CCc3cn(CCOCCOCCOCC(=O)Nc4cccc5c4C(=O)N(C4CCC(=O)NC4=O)C5=O)nn3)CC2)nc(-c2ccnc3[nH]ccc23)n1 (stereo not given in full) | –
> 50 | 21.2 | C[C@@H]1COCCN1c1cc(C2([S@@](C)(=O)=NC(=O)CCc3cn(CCCCCCCCCC(=O)Nc4cccc5c4C(=O)N(C4CCC(=O)NC4=O)C5=O)nn3)CC2)nc(-c2ccnc3[nH]ccc23)n1 (stereo not given in full) | –
> 50 | 28.4 | C[C@@H]1COCCN1c1cc(C2([S@@](C)(=O)=NC(=O)CCc3cn(CCCCC(=O)Nc4cccc5c4C(=O)N(C4CCC(=O)NC4=O)C5=O)nn3)CC2)nc(-c2ccnc3[nH]ccc23)n1 (stereo not given in full) | –
> 50 | 26.7 | C[C@@H]1COCCN1c1cc(C2([S@@](C)(=O)=NC(=O)CCc3cn(CCOCCOCC(=O)Nc4cccc5c4C(=O)N(C4CCC(=O)NC4=O)C5=O)nn3)CC2)nc(-c2ccnc3[nH]ccc23)n1 (stereo not given in full) | –
> 50 | > 50 | CCN1C(=O)CCC(N2C(=O)c3cccc(NC(=O)CCCCCCCCCn4cc(CCC(=O)N=[S@](C)(=O)C5(c6cc(N7CCOC[C@H]7C)nc(-c7ccnc8[nH]ccc78)n6)CC5)nn4)c3C2=O)C1=O (stereo not given in full) | Activity [3]: inactive
> 50 | 32.4 | C[C@@H]1COCCN1c1cc(C2([S@@](C)(=O)=NC(=O)CCc3cn(CCCCCCCCC(=O)Nc4cccc5c4C(=O)N(C4CCC(=O)NC4=O)C5=O)nn3)CC2)nc(-c2ccnc3[nH]ccc23)n1 (stereo not given in full) | –
> 50 | > 50 | Cc1ncsc1-c1ccc(CNC(=O)[C@@H]2C[C@@H](O)CN2C(=O)[C@@H](NC(=O)CCCCCCCn2cc(CCC(=O)N=[S@](C)(=O)C3(c4cc(N5CCOC[C@H]5C)nc(-c5ccnc6[nH]ccc56)n4)CC3)nn2)C(C)(C)C)cc1 | –
> 50 | > 50 | Cc1ncsc1-c1ccc(CNC(=O)[C@@H]2C[C@@H](O)CN2C(=O)[C@@H](NC(=O)CCCCn2cc(CCC(=O)N=[S@](C)(=O)C3(c4cc(N5CCOC[C@H]5C)nc(-c5ccnc6[nH]ccc56)n4)CC3)nn2)C(C)(C)C)cc1 | –
– | – | Nc1nn2cc(F)cnc2c1C(=O)Nc1cncc(F)c1N1CCC(C(=O)N2CCN(C3COC3)CC2)CC1 [M4344] | IC50 [4]: 0.00015 µM; Selectivity ratio [5]: > 50; Selectivity ratio [6]: > 50
> 50 | 23.3 | C[C@@H]1COCCN1c1cc(C2([S@@](C)(=O)=NC(=O)CCc3cn(CCCCCC(=O)Nc4cccc5c4C(=O)N(C4CCC(=O)NC4=O)C5=O)nn3)CC2)nc(-c2ccnc3[nH]ccc23)n1 (stereo not given in full) | –
> 50 | > 50 | Cc1ncsc1-c1ccc(CNC(=O)[C@@H]2C[C@@H](O)CN2C(=O)[C@@H](NC(=O)CCCCCCCCCCn2cc(CCC(=O)N=[S@](C)(=O)C3(c4cc(N5CCOC[C@H]5C)nc(-c5ccnc6[nH]ccc56)n4)CC3)nn2)C(C)(C)C)cc1 | –
3.62 | 0.83 | C[C@@H]1COCCN1c1cc(C2([S@](C)(=N)=O)CC2)nc(-c2cc[nH]c3nccc2-3)n1 [CERALASERTIB] | Activity [7]: Active; Activity [8]: 42%; Activity [9]: 71.8%; Activity [10]: 16.7%; Activity [11]: 11.5%; inhibition in vivo at 12.5 mg/kg [12]: 52.7%
> 50 | 20 | C[C@@H]1COCCN1c1cc(C2([S@@](C)(=O)=NC(=O)CCc3cn(CCCCCCC(=O)Nc4cccc5c4C(=O)N(C4CCC(=O)NC4=O)C5=O)nn3)CC2)nc(-c2ccnc3[nH]ccc23)n1 (stereo not given in full) | –
> 50 | > 50 | Cc1ncsc1-c1ccc(CNC(=O)[C@@H]2C[C@@H](O)CN2C(=O)[C@@H](N)C(C)(C)C)cc1 | –
> 50 | > 50 | Nc1cccc2c1C(=O)N(C1CCC(=O)NC1=O)C2=O (stereo not given) [POMALIDOMIDE] | –
> 50 | 16.4 | C[C@@H]1COCCN1c1cc(C2([S@@](C)(=O)=NC(=O)CCc3cn(CCCCCCCCCCC(=O)Nc4cccc5c4C(=O)N(C4CCC(=O)NC4=O)C5=O)nn3)CC2)nc(-c2ccnc3[nH]ccc23)n1 (stereo not given in full) | –
